# Several values for one entry are separate records, joined by “and”; a condition that tells them apart may be missing. Equal values may be shown once.
# Tested on: 5α-reductase
# Test: in-vivo inhibitory activity of 5α-reductase: haematic levels of DHT in rats after oral administration
# Set-up: species or system rat
# Conditions: for Seric concentrations of DHT: individual rat values; for Seric concentrations of DHT, average: basal average 335.7
# Method: A study was carried out to determine in-vivo the inhibitory activity of 5α-reductase on the part of a total extract deriving from a cellular culture of Ajuga reptans.
# The study was effected by determining the haematic levels of DHT (5α-dihydrotestosterone) on rats after administration of the extract being studied.
# For the in-vivo study of the inhibition of 5α-reductase, Sprague-Dawley adult male rats were used (Charles River Italia) having a body weight of 200-250 g.
# The animals were stalled under standard conditions: at a temperature of 22/23° C., with 65% relative humidity, exposing them to illumination cycles of 12 h light/12 h darkness.
# A standard diet in the form of pellets (standard diet, Charles River) was administered to the rats, with water ad libitum
# The experimentation was carried out according to protocols authorized by the Committee for the Care and Use of Animals of the Università degli Studi of Milan. Tests were carried out on the rats, effected from the retro-orbital plexus, immediately before the pharmalogical treatment (t0) and subsequently at a distance of 3, 6 and 8 hours after administration.
# The administration of the substances being studied was effected orally.
# In correspondence with each test on the animals treated, tests were also effected on non-treated animals to determine the basal analyte level. Both testosterone and DHT are in fact characterized by a significant circadian fluctuation.
# The plasma obtained from the whole blood treated with EDTA after centrifugation was preserved at −20° C. until dosage.
# The plasmatic concentrations of DHT (dihydrotestosterone) were determined with a commercial kit (DSL, Chematil, Angri, SA) after extraction of the samples.
# All the samples of an experimental set were dosed together to reduce the inter-analytic variability.
structure (smiles),measurement,setting,value
CC(C)(C)NC(=O)[C@H]1CC[C@H]2[C@@H]3CC[C@H]4NC(=O)C=C[C@]4(C)[C@H]3CC[C@]12C [Finasteride],Seric concentrations of DHT,"Finasteride 1 mg oral, 3 hrs",569.6 pg/mL and 404.6 pg/mL and 530.0 pg/mL and 298.1 pg/mL and 505.3 pg/mL and 300.0 pg/mL
same,"Seric concentrations of DHT, average","Finasteride 1 mg oral, 3 hrs, n=6",434.6 pg/mL
same,Seric concentrations of DHT,"Finasteride 1 mg oral, 6 hrs",592.1 pg/mL and 148.5 pg/mL and 420.1 pg/mL and 404.1 pg/mL and 565.0 pg/mL and 379.6 pg/mL
same,"Seric concentrations of DHT, average","Finasteride 1 mg oral, 6 hrs, n=6",418.2 pg/mL
same,Seric concentrations of DHT,"Finasteride 1 mg oral, 8 hrs",530.1 pg/mL and 173.1 pg/mL and 110.0 pg/mL and 706.7 pg/mL and 140.1 pg/mL and 503.9 pg/mL
same,"Seric concentrations of DHT, average","Finasteride 1 mg oral, 8 hrs, n=6",360.6 pg/mL
same,Seric concentrations of DHT,"Finasteride 5 mg oral, 3 hrs",641.0 pg/mL and 924.2 pg/mL and 569.4 pg/mL and 217.1 pg/mL and 618.6 pg/mL and 151.2 pg/mL
same,"Seric concentrations of DHT, average","Finasteride 5 mg oral, 3 hrs, n=6",520.2 pg/mL
same,Seric concentrations of DHT,"Finasteride 5 mg oral, 6 hrs",49.7 pg/mL and 128.3 pg/mL and 176.9 pg/mL and 81.2 pg/mL and 205.2 pg/mL and 103.6 pg/mL and 54.4 pg/mL and 60.7 pg/mL
same,"Seric concentrations of DHT, average","Finasteride 5 mg oral, 6 hrs, n=8",107.5 pg/mL
same,Seric concentrations of DHT,"Finasteride 5 mg oral, 8 hrs",576.6 pg/mL and 250.9 pg/mL and 300.1 pg/mL and 201.6 pg/mL and 108.8 pg/mL and 745.4 pg/mL
same,"Seric concentrations of DHT, average","Finasteride 5 mg oral, 8 hrs, n=6",363.9 pg/mL
same,trend of the concentration of DHT after administration,"rats, oral, vs. basal levels","8 hours after treatment, the DHT rises returning to the basal levels"
